This passage reports IC50 and Eggs results from ChEMBL document CHEMBL1150450, “Synthesis and antiangiogenic activity of new carbohydrate derivatives” (Bioorg Med Chem Lett, 1996).

Several values for one entry are separate records, joined by “and”; a condition that tells them apart may be missing. Identical values can stand only once.

One test deals with A-431. As to the kind of experiment: In vitro antiproliferative effect against A431 human epidermoid carcinoma cells. The test is classed as functional, cell-based.
The species named for a further test is Gallus gallus. As to the kind of experiment: Antiangiogenic activity using CAM assay, activity expressed as % of eggs with avascular zone (125 nM). It is filed as functional.
Test [1] can be described thus: Antiproliferative effect against primary endothelial cells from pork aorta(ECPA). It is filed as functional, cell-based, Sus scrofa, Endothelial cell.
The nature of test [2]: Compound was tested for antiproliferative effect against primary endothelial cells from pork aorta(ECPA). It is filed as functional, cell-based. To be noted: Sus scrofa, Endothelial cell.
Test [3] in a line: Compound was tested for antiproliferative effect against primary endothelial cells from pork aorta(ECPA) with first-phase IC50 of 0.001 nM. The settings on record: Sus scrofa, Endothelial cell.
The nature of test [4]: Compound was tested for antiproliferative effect against primary endothelial cells from pork aorta(ECPA) with first-phase IC50 of 0.1 nM. To be noted: Sus scrofa, Endothelial cell.
Test [5] is described as follows: Compound was tested for antiproliferative effect against primary endothelial cells from pork aorta (ECPA) with first-phase IC50 of 0.1 nM. The settings on record: Sus scrofa, Endothelial cell.

Consider `CNC(=O)O[C@@H]1CO[C@]2(COC(C)(C)O2)[C@@](O)(C2(C)CO2)[C@@H]1OC` (some centres not stated), for which the IC50 (in general, the concentration needed to halve the response being measured) is more than 500 µM in the test on A-431 (Homo sapiens, A-431) and 195 µM in test [1] (Sus scrofa, Endothelial cell). The same compound gave an Eggs in the test listed under Gallus gallus of 51%.
The like results for `CO[C@@H]1[C@H](OC(=O)NC(=O)CCl)CO[C@]2(COC(C)(C)O2)[C@@]1(OC)C1(C)CO1` (some centres not stated) were, in that order, 39 µM, 175 µM and 16%.
The matching figures for `CO[C@@H]1[C@H](OC(=O)NC(=O)c2ccccc2)CO[C@]2(COC(C)(C)O2)[C@@]1(O)C1(C)CO1` (some centres not stated): more than 500 µM, 363 µM and 55%.
Take `CO[C@@H]1[C@H](OC(=O)NC(=O)CCl)CO[C@]2(COC(C)(C)O2)[C@@]1(O)C1OC1CCCc1ccccc1` (some centres not stated): the half-inhibitory concentration (IC50) with A-431 (Homo sapiens, A-431) was 19 µM; with A-431 (a-431) it was 29 µM; in test [1] (Sus scrofa, Endothelial cell), 68 µM; in test [1] (endothelial cell), 90 µM. In addition, in the test listed under Gallus gallus, the Eggs is 79% and 76%.
On to `CO[C@@H]1[C@H](OC(=O)NC(=O)CCl)CO[C@]2(COC(=O)O2)[C@]1(CCCCCc1ccccc1)OC(=O)NC(=O)CCl`, for which the half-maximal inhibitory concentration (IC50) with A-431 (Homo sapiens, A-431) is 2 µM; in test [1] (Sus scrofa, Endothelial cell), 2.4 µM. The Eggs in the test filed under Gallus gallus turned out to be 80%.
`CO[C@@H]1[C@H](OC(=O)NC(=O)CCl)CO[C@]2(COC(C)(C)O2)[C@@]1(OC(=O)NC(=O)CCl)C(C)C`: the IC50 was 5.6 µM with A-431 (Homo sapiens, A-431) and 23 µM in test [1] (Sus scrofa, Endothelial cell). In the test listed under Gallus gallus, this compound came in with an Eggs of 95%.
The like results for `CCOC(=O)CNC(=O)O[C@@H]1CO[C@]2(COC(C)(C)O2)[C@@](O)(C2OC2CC(C)C)[C@@H]1OC` (some centres not stated) were, in that order, 442 µM, 343 µM and 21%.
On to `CO[C@@H]1[C@H](OC(=O)NC(=O)CCl)CO[C@]2(COC(C)(C)O2)[C@@]1(O)C1OC1CC(C)C` (some centres not stated), for which the half-maximal inhibitory concentration (IC50) came out at 44 µM with A-431 (Homo sapiens, A-431); 124 µM in test [1] (Sus scrofa, Endothelial cell); 178 µM in test [1] (endothelial cell). The Eggs in the test listed under Gallus gallus is 75% and 68%.
For the compound `CCOC(=O)NC(=O)O[C@@H]1CO[C@]2(COC(C)(C)O2)[C@@](O)(C2OC2CC(C)C)[C@@H]1OC` (some centres not stated), the concentration for half-maximal inhibition (IC50) in the test with A-431 (Homo sapiens, A-431) stood at 471 µM; in test [1] (Sus scrofa, Endothelial cell), 398 µM. Moreover, the Eggs in the test listed under Gallus gallus was found to be 11%.
Turning to `CO[C@@H]1[C@H](OC(=O)NCCCl)CO[C@]2(COC(C)(C)O2)[C@@]1(O)C1(C)CO1` (some centres not stated), the IC50 in the test with A-431 (Homo sapiens, A-431) is more than 500 µM; in test [1] (Sus scrofa, Endothelial cell), 278 µM. The same compound yielded an Eggs in the test filed under Gallus gallus of 10%.
On to `CO[C@@H]1[C@H](OC(=O)NC(=O)CCl)CO[C@]2(COC(=O)O2)[C@@]1(O)CCCCCc1ccccc1`, for which the IC50 with A-431 (Homo sapiens, A-431) stood at 11 µM; in test [2] it was 14 µM. In the test listed under Gallus gallus, this compound displayed an Eggs of 95%.
With `CO[C@@H]1[C@H](OC(=O)NC(=O)CCl)CC[C@]2(CO2)[C@H]1[C@@]1(C)O[C@@H]1CC=C(C)C` [O-CHLOROACETYLCARBAMOYLFUMAGILLOL], the half-maximal inhibitory concentration (IC50) in the test with A-431 (Homo sapiens, A-431) is 5.3 µM; in test [3], 12 µM. Besides, the Eggs in the test filed under Gallus gallus amounted to 85%.
On to `CO[C@@H]1[C@H](OC(=O)/C=C/C=C/C=C/C=C/C(=O)O)CC[C@]2(CO2)[C@H]1[C@@]1(C)O[C@@H]1CC=C(C)C` [FUMAGILLIN], for which the IC50 in the test with A-431 (Homo sapiens, A-431) was 48 µM; in test [4], 100 µM. For the same compound, in the test listed under Gallus gallus, the Eggs is recorded as 80%.
Consider `CO[C@@H]1[C@H](OC(=O)NC(=O)CCl)CO[C@]2(COC(C)(C)O2)[C@@]1(OC(=O)NC(=O)CCl)C1OC1CCCc1ccccc1` (some centres not stated), for which the 50% inhibitory concentration (IC50) was 3.7 µM in the test with A-431 (Homo sapiens, A-431) and 16 µM in test [1] (Sus scrofa, Endothelial cell). Moreover, in the test listed under Gallus gallus, the Eggs was 63%.
With `CO[C@@H]1C(=O)CC[C@]2(CO2)[C@@]1(O)[C@@]1(C)O[C@@H]1CC=C(C)C` [OVALICIN], the half-maximal inhibitory concentration (IC50) is 7.5 µM in the test with A-431 (Homo sapiens, A-431) and 10 µM in test [5].
With `CO[C@@H]1C(=O)CO[C@]2(COC(C)(C)O2)[C@@]1(O)C1(C)CO1` (some centres not stated), the IC50 in the test with A-431 (Homo sapiens, A-431) was more than 500 µM; in test [1] (Sus scrofa, Endothelial cell) it was 119 µM. Also, in the test listed under Gallus gallus, the Eggs stood at 48%.
The like results for `CO[C@@H]1[C@H](OC(=O)NC(=O)CCl)CO[C@]2(COC(C)(C)O2)[C@]1(CCCCCc1ccccc1)OC(=O)NC(=O)CCl` were, in that order, 1.2 µM, 0.8 µM and 88%.
The like results for `CO[C@@H]1[C@H](OC(=O)NC(=O)CCl)CO[C@]2(COC(C)(C)O2)[C@@]1(O)C1(C)CO1` (some centres not stated) were, in that order, 84 µM, 57 µM and 84%.
The like results for `C=C(C)[C@@]1(O)[C@H](OC)[C@H](OC)CO[C@]12CO2` were, in that order, more than 500 µM, more than 500 µM and 32%.
Turning to `CO[C@@H]1[C@H](OC(=O)NC(=O)CCl)CO[C@]2(COC(C)(C)O2)[C@@]1(OC(=O)NC(=O)CCl)C1(C)CO1` (some centres not stated), the IC50 in the test with A-431 (Homo sapiens, A-431) came out at 38 µM; in test [1] (Sus scrofa, Endothelial cell), 122 µM. In the test listed under Gallus gallus, the Eggs came out at 62%.
